According to patent publication US10364216B2, “Alkenyl sulfate ester or salt thereof” (Kao Corporation, priority 2013, dated 2019):
Structures can show the parent of a compound that is named as a salt.

Molecular target: T1, ENaC complex (human ENaCα, β and γ) (Homo sapiens, UniProt P37088+P51168+P51170)
T1 construct: host or cells: Xenopus oocytes injected with cRNA
T1 sequence (P37088 1-669): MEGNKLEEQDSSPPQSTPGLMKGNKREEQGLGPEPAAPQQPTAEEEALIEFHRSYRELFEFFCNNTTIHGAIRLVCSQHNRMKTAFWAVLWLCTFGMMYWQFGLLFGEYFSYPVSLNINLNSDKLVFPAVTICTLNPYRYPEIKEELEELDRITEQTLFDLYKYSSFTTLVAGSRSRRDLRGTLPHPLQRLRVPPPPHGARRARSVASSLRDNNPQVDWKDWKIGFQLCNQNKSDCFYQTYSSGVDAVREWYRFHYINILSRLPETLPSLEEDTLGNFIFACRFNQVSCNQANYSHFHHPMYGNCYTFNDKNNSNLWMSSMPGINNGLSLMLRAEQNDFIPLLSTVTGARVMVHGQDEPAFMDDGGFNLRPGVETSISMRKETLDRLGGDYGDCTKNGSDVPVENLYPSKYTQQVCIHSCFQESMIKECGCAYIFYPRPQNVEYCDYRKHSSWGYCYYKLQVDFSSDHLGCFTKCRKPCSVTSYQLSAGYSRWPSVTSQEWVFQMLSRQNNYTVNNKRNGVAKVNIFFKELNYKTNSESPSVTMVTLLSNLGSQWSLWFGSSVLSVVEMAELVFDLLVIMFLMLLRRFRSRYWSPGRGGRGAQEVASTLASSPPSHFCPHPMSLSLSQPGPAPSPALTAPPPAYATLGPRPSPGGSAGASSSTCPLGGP
T1 sequence (P51168 1-640): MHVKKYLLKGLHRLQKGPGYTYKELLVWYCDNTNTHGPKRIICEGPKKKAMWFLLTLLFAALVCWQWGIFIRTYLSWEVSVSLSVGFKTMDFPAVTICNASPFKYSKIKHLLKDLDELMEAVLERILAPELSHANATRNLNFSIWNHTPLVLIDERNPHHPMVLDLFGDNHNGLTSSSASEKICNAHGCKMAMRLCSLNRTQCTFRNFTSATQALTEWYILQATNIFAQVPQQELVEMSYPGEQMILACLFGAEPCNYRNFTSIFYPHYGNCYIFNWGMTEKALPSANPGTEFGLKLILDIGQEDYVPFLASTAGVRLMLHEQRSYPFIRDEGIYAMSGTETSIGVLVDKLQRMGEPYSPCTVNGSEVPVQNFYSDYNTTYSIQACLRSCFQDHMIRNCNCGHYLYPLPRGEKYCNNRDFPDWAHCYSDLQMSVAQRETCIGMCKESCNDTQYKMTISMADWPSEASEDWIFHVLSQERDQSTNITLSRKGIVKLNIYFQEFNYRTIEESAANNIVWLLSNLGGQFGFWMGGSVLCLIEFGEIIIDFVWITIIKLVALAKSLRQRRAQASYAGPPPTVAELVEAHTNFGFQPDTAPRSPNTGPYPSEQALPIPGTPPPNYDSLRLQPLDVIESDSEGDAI
T1 sequence (P51170 1-649): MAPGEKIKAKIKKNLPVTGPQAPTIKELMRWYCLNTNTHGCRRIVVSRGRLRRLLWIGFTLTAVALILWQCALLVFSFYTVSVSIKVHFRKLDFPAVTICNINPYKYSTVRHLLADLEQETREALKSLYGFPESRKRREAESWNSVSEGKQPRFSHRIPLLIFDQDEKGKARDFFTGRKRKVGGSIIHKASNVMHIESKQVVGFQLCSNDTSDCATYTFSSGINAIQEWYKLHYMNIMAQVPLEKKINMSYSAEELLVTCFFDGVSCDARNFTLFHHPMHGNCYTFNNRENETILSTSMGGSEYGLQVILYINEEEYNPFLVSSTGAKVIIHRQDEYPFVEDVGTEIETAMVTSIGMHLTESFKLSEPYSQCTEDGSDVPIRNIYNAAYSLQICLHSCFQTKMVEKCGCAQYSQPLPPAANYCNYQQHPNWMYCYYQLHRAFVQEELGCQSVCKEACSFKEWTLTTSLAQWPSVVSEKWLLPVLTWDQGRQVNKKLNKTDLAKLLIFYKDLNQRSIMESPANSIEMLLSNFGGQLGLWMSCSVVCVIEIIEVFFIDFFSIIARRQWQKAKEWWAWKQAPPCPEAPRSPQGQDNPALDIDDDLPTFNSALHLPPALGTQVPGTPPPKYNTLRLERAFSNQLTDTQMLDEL
Test: ENaC inhibition activity, two-electrode voltage clamp in Xenopus oocytes
Format: cell-based
Details: 3 to 30 mM; membrane potential −60 mV; 115 mM NaCl solution; FIG. 1
Method: Inhibition activity of ENaC expressed in Xenopus oocytes was measured according to the method described in “The journal of biological chemistry, 284 (2): pages 792-798 (2009)”. Specifically, trans-3-octenyl sulfate was added to oocytes expressed with ENaC complex, and the activity of ENaC was analyzed electrophysiologically in accordance with the procedures described below.
First, DNA sequences encoding human ENaCα, β and γ, respectively were obtained by carrying out PCR using a plasmid vector on which the same gene was cloned (manufactured by Clontech Laboratories, Inc.) as a template. The obtained PCR amplification fragment was integrated into a transcription vector pSP64 (manufactured by Promega Corporation), and pSP64/ENaCα, pSP64/ENaCβ and pSP64/ENaCγ were manufactured, respectively.
pSP64/ENaCα and pSP64/ENaCγ were digested with EcoRI, and pSP64/ENaCβ was digested with PvuII, respectively, whereby linearize the plasmid DNA. […]
The obtained aqueous solutions of cRNA encoding ENaCα, ENaCβ and ENaCγ respectively were mixed in the same quantity, and injected by 50 ng per one Xenopus oocyte. […]
Two micro-glass electrodes were inserted into the oocyte, and the membrane potential was fixed at −60 mV. At this time, Na^+ ion influx induced by ENaC complex in a constantly active state was measured with replacement to change of the current amount. […]

SMILES: CCCC/C=C/CCOS(=O)(=O)O [trans-3-octenyl sulfate]
- Effect on inward current of ENaC expressing oocytes: inhibited inward current of ENaC expressing oocytes concentration-dependently
